Measurements reported in paper PMC9101764, “Synthesis and In Vitro Characterization of Selective Cannabinoid CB2 Receptor Agonists: Biological Evaluation against Neuroblastoma Cancer Cells” (Molecules, 2022).

Tests used:
hCB2R [1] = biological target: T1, hCB2R (Homo sapiens, UniProt P34972); experiment: HitHunter cAMP assay: inhibition of FSK-stimulated cAMP accumulation in CHO cells; assay type: cell-based
T1 construct: host or cells: HitHunter CHO-K1 cells
Description: For the cAMP inhibition assay, cells were treated with 10 μM FSK and synthetized compounds for 90 min to assess compound concentration-dependent activity.
(§1) CHO cells stably expressing hCB1R or hCB2R were maintained at 37 °C and 5% CO2 in Gibco Ham’s F-12 nutrient mix (Fisher Scientific, Loughborough, UK ) supplemented with 2 mM L-glutamine, 10% fetal bovine serum (FBS), 0.6% penicillin−streptomycin (Fisher Scientific, Loughborough UK), and the disulfate salt of geneticin (G418) as previously described (Sigma-Aldrich, Poole, UK). For subsequent radioligand displacement assays, membranes were prepared by scraping cells from flasks, centrifuging the cells, and storing the cell pellet at −20 °C. When required for us, cell pellets were defrosted and diluted in tris buffer (50 mM Tris-HCl and 50 mM Tris-base). As we have described in previous studies, HitHunter (cAMP) and PathHunter (βarrestin2) CHO-K1 cells stably expressing hCB1R or hCB2R from DiscoveRx® (Eurofins, Fremont, CA, USA) were maintained at 37 °C, 5% CO2 in F-12 DMEM containing 10% FBS and 1% Pen/Strep with 800 µg/mL geneticin (HitHunter) or 800 µg/mL G418 and 300 µg/mL hygromycin B (PathHunter).
The quantification of FSK-stimulated cAMP accumulation using the DiscoveRx HitHunter assay (DiscoveRx, Eurofins, Fremont, CA, USA) has been described in detail previously elsewhere. Briefly, 20,000 cells/well were plated in low-volume 96-well plates and incubated overnight in Opti-MEM with 1% FBS at 37 °C and 5% CO2. The next day, the media were replaced with cell assay buffer (DiscoveRx). Immediately after this, the cells were simultaneously treated with 10 µM FSK and ligands for 90 min. Subsequent additions of cAMP antibody solution and cAMP working detection solutions followed the manufacturer’s directions (DiscoveRx) and cells were stored for 60 min at room temperature. cAMP solution A (DiscoveRx) was added according to the manufacturer’s directions followed by another 60 min room temperature incubation prior to chemiluminescence being measured on a Cytation5 plate reader (top read, gain 200, integration time 10,000 ms).
(§2) Estimates of Ki, EC50, and Emax were determined using non-linear regression three-parameters (GraphPad, Prism, v. 9.0).
Data are fitted to a non−linear regression (three parameter model, GraphPad v. 9.0). Data are mean ± S.E.M. of 6 independent experiments performed in triplicate.

hCB1R = biological target: T2, hCB1R (Homo sapiens, UniProt P21554); experiment: [3H]CP55,940 radioligand displacement assay, CHO cell membranes; assay type: binding
T2 construct: expressed in transfected cells; host or cells: CHO cells (membranes)
T2 sequence (P21554 whole entry): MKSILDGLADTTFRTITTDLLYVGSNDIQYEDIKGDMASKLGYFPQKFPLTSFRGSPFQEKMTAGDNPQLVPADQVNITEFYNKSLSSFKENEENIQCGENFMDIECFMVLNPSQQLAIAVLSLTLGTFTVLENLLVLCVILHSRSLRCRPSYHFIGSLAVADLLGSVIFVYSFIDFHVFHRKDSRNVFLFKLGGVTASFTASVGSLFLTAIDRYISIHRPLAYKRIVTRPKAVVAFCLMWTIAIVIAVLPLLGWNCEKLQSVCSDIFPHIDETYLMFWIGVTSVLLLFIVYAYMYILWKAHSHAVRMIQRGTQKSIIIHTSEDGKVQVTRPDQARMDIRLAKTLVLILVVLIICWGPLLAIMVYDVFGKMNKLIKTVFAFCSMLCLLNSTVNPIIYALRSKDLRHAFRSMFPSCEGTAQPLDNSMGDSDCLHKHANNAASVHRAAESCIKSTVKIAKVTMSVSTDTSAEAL
Description: as §1
(§3) We have previously described radioligand displacement assays in detail. […] Binding reactions were terminated by ice-cold tris binding buffer and subsequent vacuum filtration (24-well sampling manifold (Brandel cell harvester; Brandel Inc., Gaithersburg, MD, USA)) using Brandel GF/B filters soaked in wash buffer at 4 °C for at least 24 h. Filters were washed with 1.2 mL of tris-binding buffer six times, then oven-dried for 60 min before being incubated in 3 mL of scintillation fluid (Ultima Gold XR, PerkinElmer, Seer Green, Buckinghamshire, UK). Radioactivity was quantified by liquid scintillation spectrometry. All compounds were first prepared at 10 mM solutions in DMSO. The final vehicle concentration for assays was 0.1% DMSO. All assays were performed in duplicate.
as §2

hCB2R [2] = biological target: T1, hCB2R; experiment: as above; assay type: binding
Description: as §1, §3, §2

SH-SY5Y cells = experiment: Sulforhodamine B (SRB) cell viability assay; assay type: cell-based, human
Description: We tested the anti-proliferative activity of the novel CB2R agonists FG158a, FG160a, FG161a, and LV62 in neuroblastoma cell lines (Figure 4). The compounds were assayed as a mixture of cis and trans isomers. […] After 72 h of treatment, the effect was higher and could also be observed at lower concentrations. The inhibitory effect was confirmed in another neuroblastoma cell line, SK-N-BE cells.
Human neuroblastoma SHSY5Y and SK-N-BE cell lines were grown in DMEM (GIBCO, Paisley, UK) and MEM (Sigma-Aldrich, St.Louis, MO, USA), respectively, supplemented with 2 mM l-glutamine, […], 50 units/mL penicillin and 10% heat-inactivated fetal bovine serum (FBS) in a humidified atmosphere (5% CO2 at 37 °C). Cells were detached as previously described with 0.25% trypsin (Sigma-Aldrich) at 70–80% confluence.
Cells seeded for 24 h in triplicate in 96-well plates at a density of 8000 cells/well were left to adhere overnight. CB2R agonists were added to the culture in triplicate at concentrations ranging from 2.5–40 µM. After 24 h, 48 h, and 72 h, cells were fixed, shaking for 2 h at 4 °C with 50% v/v trichloroacetic acid and washed with distilled water. Cells left overnight to dry were stained with 0.4% w/v SRB in 1% v/v acetic acid (at room temperature for 30 min on a shaker) and then washed with 1% acetic acid to allow for the removal of the unbound dye. TRIS-HCl 10 mM, pH 7.4 was added to the cells and absorbance was measured at 495 nm as previously shown using a Glomax® Discover Microplate Reader (Promega, Madison, WI, USA). In combinatory assays, similar procedures were adopted and the CB2R antagonist SR144528 (1 µM) was added 1 h before the CB2 agonists (10, 20 and 40 µM) to SHSY5Y cells that were harvested as described above after 72 h of incubation.
Figure 4 Inhibition of cell viability. The effect on cell viability by CB2R agonists was determined by sulforhodamine B (SRB) assays in SH-SY5Y and SK-N-BE cell lines. SH-SY5Y cells were treated with the compounds indicated in the figure for 24 h (A), 48 h (B), and 72 h (C) at the concentrations reported in the histograms. SK-N-BE cells were treated with the same compounds for 72 h (D). Figures report cell viability (mean of at least 3 independent experiments ± SEM) as percent of cell survival vs. untreated cells (considered as 100% of survival). […] The statistical significance was calculated with two-way ANOVA using Dunnett’s multiple comparisons test.

[3] = CHO membranes, 0.1 nM-10 μM compounds

T1 sequence (P34972 whole entry): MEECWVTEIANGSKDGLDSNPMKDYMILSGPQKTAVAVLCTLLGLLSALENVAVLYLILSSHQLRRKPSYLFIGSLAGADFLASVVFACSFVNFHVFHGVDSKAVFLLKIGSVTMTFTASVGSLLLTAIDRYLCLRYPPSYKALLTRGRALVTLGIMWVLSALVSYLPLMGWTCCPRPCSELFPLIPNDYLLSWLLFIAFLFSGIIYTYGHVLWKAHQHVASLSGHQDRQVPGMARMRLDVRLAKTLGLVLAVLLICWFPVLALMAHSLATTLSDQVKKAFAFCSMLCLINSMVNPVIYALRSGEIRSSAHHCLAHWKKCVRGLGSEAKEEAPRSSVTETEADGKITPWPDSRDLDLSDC

CC1CCC(NC(=O)c2cc3cccnc3n(CCCCCBr)c2=O)CC1 (stereo not drawn) [FG158a, 1-(5-bromopentyl)-N-(4-methylcyclohexyl)-2-oxo-1,2-dihydro-1,8-naphthyridine-3-carboxamide]
EC50 (hCB2R [1]): > 10 µM
modulation of cAMP response (hCB2R [1]; CHO cells expressing hCB2R, 10 μM FSK, 90 min): not to affect this signaling pathway
Ki (hCB1R): > 10 µM
displacement of [3H]CP55,940 at hCB1R (hCB1R; [3]): not able to displace [^3H]CP55,940
Ki (hCB2R [2]): 0.021 µM
displacement of [3H]CP55,940 at hCB2R (hCB2R [2]; [3]): fully displaced [^3H]CP55,940
effect on cell viability (SH-SY5Y cells; 24 h, 48 h and 72 h, 2.5–40 µM): inhibited cell viability
IC50 (SH-SY5Y cells; Homo sapiens, 72 h of treatment, SRB, cis/trans mixture): 11.8 µM
melting point: 121 to 123 °C
